These results are taken from patent US7235557B2, “Compounds and their uses” (MGI GP, Inc., priority 2000, dated 2007).

As usually defined, the IC50 is the midpoint of a concentration-inhibition curve.

Structures are written as SMILES. Values joined by “and” are separate entries in the source; they are usually repeats but may differ in a detail not shown here. Identical values can stand only once.

The first test deals with T1, purified recombinant human PARP (Homo sapiens, UniProt P09874).
T1 construct: purchased Trevigan (Gaithersburg, Md.)
T1 sequence (P09874 whole entry): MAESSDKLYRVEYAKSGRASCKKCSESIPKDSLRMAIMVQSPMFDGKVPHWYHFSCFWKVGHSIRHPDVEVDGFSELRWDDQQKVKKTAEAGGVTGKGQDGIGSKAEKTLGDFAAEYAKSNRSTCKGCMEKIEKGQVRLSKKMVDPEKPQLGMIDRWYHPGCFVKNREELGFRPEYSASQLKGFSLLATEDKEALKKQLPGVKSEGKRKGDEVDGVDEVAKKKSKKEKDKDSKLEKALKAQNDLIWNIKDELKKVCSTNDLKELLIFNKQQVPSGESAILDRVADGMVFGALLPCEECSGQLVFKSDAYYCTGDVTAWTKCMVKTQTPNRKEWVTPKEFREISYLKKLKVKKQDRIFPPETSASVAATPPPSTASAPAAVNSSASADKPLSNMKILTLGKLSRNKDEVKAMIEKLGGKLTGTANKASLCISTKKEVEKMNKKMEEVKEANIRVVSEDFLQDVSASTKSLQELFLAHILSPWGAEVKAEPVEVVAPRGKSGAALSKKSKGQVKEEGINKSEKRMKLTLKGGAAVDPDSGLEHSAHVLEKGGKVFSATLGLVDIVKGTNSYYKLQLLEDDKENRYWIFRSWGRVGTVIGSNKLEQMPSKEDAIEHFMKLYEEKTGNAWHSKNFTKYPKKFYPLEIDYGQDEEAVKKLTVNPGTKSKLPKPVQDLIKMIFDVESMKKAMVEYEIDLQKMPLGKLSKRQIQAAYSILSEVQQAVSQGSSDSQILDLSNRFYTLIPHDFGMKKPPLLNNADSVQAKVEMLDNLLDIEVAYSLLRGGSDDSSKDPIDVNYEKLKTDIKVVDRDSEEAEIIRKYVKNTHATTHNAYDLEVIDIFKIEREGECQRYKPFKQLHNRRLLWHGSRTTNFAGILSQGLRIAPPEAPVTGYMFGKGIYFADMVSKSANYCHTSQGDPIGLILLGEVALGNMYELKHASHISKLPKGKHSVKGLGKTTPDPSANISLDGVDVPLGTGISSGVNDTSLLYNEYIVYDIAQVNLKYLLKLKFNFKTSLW
Kind of test: PARP enzyme assay (IC50). In kind it is biochemical. The following applies: IC50 (μM), approximate IC50 values, [3H]NAD. The protocol:
The reaction is initiated by adding enzyme and incubating the mixture at 25° C. After 2 minutes of incubation, the reaction is terminated by adding 500 microliters of ice cold 30% (w/v) trichloroacetic acid. The precipitate formed is transferred onto a glass fiber filter Packard Unifilter-GF/C) and washed three times with 70% ethanol. After the filter is dried, the radioactivity is determined by scintillation counting.
Regarding `O=C1NCCn2c(Cc3ccccc3)nc3cccc1c32`, the IC50 was found to be 0.108 µM.
On the same count and under the same terms, in the case of `O=c1[nH]c2ccc(N3C[C@@H]4C[C@H]3CN4)nc2c2ccccc12` it was 0.042 µM.

The test is the same for the next values; noted with them: approximate IC50 values, [3H]NAD, read-out: IC50.
Consider `O=C1NCCn2c(-c3ccc(-c4ccccc4Cl)o3)nc3cccc1c32`, for which the IC50 came to 0.145 µM.
Still for that read-out and setting: in the case of `CN(C)CCCOc1ccc(-c2nc3cccc4c3n2CCNC4=O)cc1` it was 0.237 µM.
Take `O=C1NCCn2c(-c3cc(F)cc(F)c3)nc3cccc1c32`: the IC50 came to 0.061 µM.
The same measure, in the same setting: the same measure for `O=C1NN=Cc2cn(Cc3ccccc3)c3cccc1c23`: 13 µM.
On the same count and under the same terms, in the case of `CC(C)N(Cc1nc2cccc3c2n1CCNC3=O)C(C)C` it was 0.647 µM.
Same read-out and setting: in the case of `O=C1NCC(c2ccccc2)c2c[nH]c3cccc1c23` (stereo not shown) it was 0.176 µM.
For the compound `O=C1CNC(=O)c2cccc3[nH]cc1c23`, the IC50 turned out to be 0.035 µM.
Consider `Cn1cc2c3c(cccc31)C(=O)NCC2O` (stereo not shown), for which the IC50 was 0.79 µM.
For the compound `O=C1NCCN2CCc3cccc1c32`, the IC50 was found to be 2.41 µM.
The same measure, in the same setting: the same measure for `O=C(NCCN1CCOCC1)c1cccc(-c2nc3cccc4c3n2CCNC4=O)c1`: 0.448 µM; for `O=C1NN=C(CN2CCN(c3ccccn3)CC2)c2c[nH]c3cccc1c23` [drawing 105]: 0.025 µM.
`O=C1NCCn2c(CN(Cc3ccccc3)Cc3ccccc3)nc3cccc1c32`: the half-maximal inhibitory concentration (IC50) turned out to be 0.218 µM.
As to `O=C1NCCn2c(-c3ccc(O)cc3O)nc3cccc1c32`, the IC50 amounted to 0.186 µM.
The same measure, in the same setting: the same measure for `CC(C)(C)OC(=O)Cn1c(Br)c2c3c(cccc31)C(=O)NN=C2`: 24.1 µM; for `CC(C)(C)OC(=O)N1CCN(C(=O)c2cccc(-c3nc4cccc5c4n3CCNC5=O)c2)CC1`: 0.583 µM; for `Cc1ccc(-c2nc3cccc4c3n2CCNC4=O)cc1`: 0.11 µM.
On the same count and under the same terms, the same measure for `CN(C)CCN(Cc1ccccc1)Cc1nc2cccc3c2n1CCNC3=O`: 0.153 µM; for `O=C1NCCn2c(-c3cc(O)cc(O)c3)nc3cccc1c32`: 0.089 µM.
The same measure, in the same setting: the same measure for `CCC(=O)Nc1cnc2c(c1)[nH]c(=O)c1ccccc12`: 0.111 µM; for `COc1ccc(N(C)Cc2nc3cccc4c3n2CCNC4=O)cc1`: 0.121 µM.
With `CN(C)Cc1nc2cccc3c2n1CCNC3=O`, the IC50 was determined as 0.068 µM.
Regarding `O=C1NCCc2c[nH]c3cccc1c23`, the IC50 was 0.366 µM.
The same measure, in the same setting: in the case of `CCOC(=O)[C@@H]1C[C@H]1c1nc2cccc3c2n1CCNC3=O` it was 0.108 µM; in that of `O=C1NCCn2c(-c3ccc(Br)cc3)nc3cccc1c32`, 0.054 µM.
Still for that read-out and setting: the same measure for `COc1ccc2[nH]c(=O)c3ccccc3c2n1`: 0.216 µM.
On the same count and under the same terms, in the case of `CCN(CC)CC1=NNC(=O)c2cccc3[nH]cc1c23` it was 0.034 µM; in that of `O=C1NCCn2c(-c3cccc(C(=O)N4CCN(Cc5ccc6c(c5)OCO6)CC4)c3)nc3cccc1c32`, 0.635 µM.
For the compound `O=C1NCCn2c(-c3ccc(Br)s3)nc3cccc1c32`, the IC50 was 0.094 µM.
The same measure, in the same setting: in the case of `O=C1NCCn2c(-c3ccc4ccccc4c3)nc3cccc1c32` it was 0.032 µM; in that of `O=C(O)CCc1nc2cccc3c2n1CCNC3=O`, 1.44 µM.
`O=C1NCCn2c(C3CCCCC3)nc3cccc1c32`: the IC50 worked out at 0.204 µM.
Same read-out and setting: the same measure for `COc1ccc(CC(C)c2nc3cccc4c3n2CCNC4=O)cc1` (stereo not shown): 0.128 µM; for `O=C1CCN(Cc2nc3cccc4c3n2CCNC4=O)CC1`: 0.329 µM.
Still for that read-out and setting: the same measure for `CN(C)CCNC(=O)c1cccc(-c2nc3cccc4c3n2CCNC4=O)c1`: 0.246 µM.
On the same count and under the same terms, the same measure for `CCCCN(CCCC)Cc1nc2cccc3c2n1CCNC3=O`: 1.75 µM.
Take `O=C1NCCn2c(CN3CCc4ccccc4C3)nc3cccc1c32`: the IC50 came out at 0.193 µM.
The same measure, in the same setting: the same measure for `O=C1NCCn2c(-c3ccco3)nc3cccc1c32`: 0.108 µM.

A further test deals with PARP (Homo sapiens, UniProt P09874).
Chain of PARP (P09874 whole entry): as above
Assay: not given
Particulars: read-out: IC50 for inhibiting PARP; reported by Suto et al.; cited from earlier work.
Turning to `O=C1NCCc2c(OCCCCN3CCCCC3)cccc21` [3,4-dihydro-5-[4-(1-piperidinyl)butoxy]-1(2H)-isoquinolinone], the IC50 was 40 nM.

A further test concerns infarct size caused by ischemia and reperfusion of the heart.
Assay: not given
Particulars: rabbits, 1 mg/kg; cited from earlier work.
With `Oc1cccc2c(O)nccc12` [1,5-dihydroxyisoquinoline], the “reduction in infarct size” value is on record as 38–48%.

Staying with this test, now noted: rabbits, single injection 10 mg/kg, one minute before occlusion or before reperfusion; cited from earlier work.
Take `NC(=O)c1cccc(N)c1` [3-amino-benzamide]: the “reduction in infarct size in the heart” value was 32–42%.

The test system of another test is MSU crystal induced neutrophil migration. The test can be described thus: MSU crystal-induced neutrophil recruitment (peritonitis, gout model). In kind it is in vivo, Swiss albino mice. The following applies: 45 mg/kg i.p.; 6 h. The protocol:
Male outbread Swiss albino mice (20–22 g body weight) were purchased from Banton and Kingsman (T.O. stain; Hull, Humberside) and maintained on a standard chow pellet diet with tap water ad libitum and a 12:00 h light/dark cycle. All animals were housed for 1 week prior to experimentation to allow body weight to reach 28–30 g.
1,11b-dihydrobenzopyrano[4,3,2-de]isoquinolin-1-one, as an example PARP inhibitor, was dissolved in 100% DMSO at room temperature at a concentration of 45 mg in 2 ml. The compound was then injected into the peritoneal cavity, so as each mouse received a single dose corresponding to 45 mg/2 ml/kg (e.g. 60 μl for a mouse of 30 g). Control mice received DMSO at 2 ml/kg i.p. A third group of mice which were left untreated were added to control for potential effects of the vehicle. The study involved therefore, the following three groups: group A, untreated mice, n=6, group B, DMSO-treated mice, n=8, and group C, mice treated with 1,11b-dihydrobenzopyrano[4,3,2-de]isoquinolin-1-one, n=8.
MSU crystal-induced neutrophil recruitment was tested as follows. In all cases, mice were treated 1 h after the treatment noted above, with MSU crystals. A homogenous suspension of MSU crystals was obtained by a 30 min rotation. Peritonitis was induced by injection of 3 mg MSU crystals in 0.5 ml PBS (0.1 M, pH 7.4), and the recruitment of neutrophils into the cavity evaluated at the 6 h time point (Getting et al., 1997, J. Pharmacol. Exp. Ther. 283: 123–130). […]
An aliquot (100 μl) of the lavage fluid was then diluted 1:10 in Turk's solution (0.01% crystal violet in 3% acetic acid). The samples were then vortexed and 10 μl of the stained cell solution were placed in a Neubauer haematocymometer and neutrophils numbers counted using a light microscope (Olympus B061). […]
Data are shown for single mice, and also shown as mean±S.E. of (n) mice per group. Statistical differences were determined by ANOVA, plus Bonferroni test A P value<0.05 was taken as significant.
Regarding `O=C1N=Cc2cccc3c2C1c1ccccc1O3` (stereo not shown) [1,11b-dihydrobenzopyrano[4,3,2-de]isoquinolin-1-one], the “inhibition of cell influx vs. the vehicle group” value is given as 55%.

Staying with this test, now noted: group C, 45 mg/kg i.p. 1 h prior to 3 mg MSU crystals; 6 h time-point; one value per mouse; 45 mg/kg.
Take `O=C1N=Cc2cccc3c2C1c1ccccc1O3` (stereo not shown) [1,11b-dihydrobenzopyrano[4,3,2-de]isoquinolin-1-one]: the “Neutrophil Numbers (single mice)” value is 2.4 10^6 per mouse (2×) and 3.0 10^6 per mouse (2×) and 2.7 10^6 per mouse and 2.1 10^6 per mouse (2×) and 5.1 10^6 per mouse.

The same test, now with this note: group C, 45 mg/kg i.p.; MSU crystals (3 mg); 6 h; mean ± S.E. of (n) mice; vehicle 6.30 ± 0.33.
As to `O=C1N=Cc2cccc3c2C1c1ccccc1O3` (stereo not shown) [1,11b-dihydrobenzopyrano[4,3,2-de]isoquinolin-1-one], the “Neutrophils (10^6 per mouse)” value is reported as 2.85 ± 0.34 (8)* 10^6 per mouse.

Another test deals with focal cerebral ischemia. The test can be described thus: Focal cerebral ischemia (MCA cauterization with temporary bilateral CCA occlusion), infarct volume. The following applies: 5 mg/kg i.p. 2 h before and 2 h after MCA occlusion; 24 h; mean±SD; control 165.2±34.0. In kind it is in vivo, male Long-Evans rats. The protocol:
Focal cerebral ischemia is produced by cauterization of the right distal MCA (middle cerebral artery) with bilateral temporary common carotid artery occlusion in male Long-Evans rats for 90 minutes. All procedures performed on the animals are approved by the University Institutional Animal Care and Use Committee of the University of Pennsylvania. A total of 42 rats (weights: 230–340 g) obtained from Charles River were used in this study. The animals fasted overnight with free access to water prior to the surgical procedure.
Two hours prior to MCA occlusion, varying amounts (control, n=14; 5 mg/kg, n=7; 10 mg/kg, n=7; 20 mg/kg, n=7; and 40 mg/kg, n=7) of the compound, 3,4-dihydro-5-[4-(1-piperidinyl)-butoxy]-1(2H)-isoquinolinone (“DPQ”) were dissolved in dimethyl sulfoxide (DMSO) using a sonicator. A volume of 1.28 ml/kg of the resulting solution was injected intraperitoneally into […].
Focal cerebral ischemia was produced by cauterization of the distal portion of the right MCA with bilateral temporary common carotid artery (CCA) occlusion by the procedure of Chen et al., “A Model of Focal Ischemic Stroke in the Rat: Reproducible Extensive Cortical Infarction”, Stroke 17:738–43 (1986) and/or Liu et al., “Polyethylene Glycol-conjugated Superoxide Dismutase and Catalase Reduce Ischemic Brain Injury”, Am. J. Physiol. 256:H589–93 (1989), both of which are hereby incorporated by reference.
Specifically, bilateral CCA's were isolated, and loops made from polyethylene (PE-10) catheter were carefully passed around the CCA's for later remote occlusion. The incision made previously for placement of the laser doppler probe was extended to allow observation of the rostral end of the zygomatic arch at the fusion point using a dental drill, and the dura mater overlying the MCA was cut. […] The burr hole was covered with a small piece of Gelform, and the wound was sutured to maintain the brain temperature within the normal or near-normal range.
After 90 minutes of occlusion, the carotid loops were released, the tail arterial catheter was removed, and all of the wounds were sutured. Gentamicin sulfate (10 mg/ml) was topically applied to the wounds to prevent infection. […]
Two hours after MCA occlusion, the animals were given the same doses of the PARP inhibitor as in the pre-treatment. […] To avoid artifacts due to edema, the damaged area was calculated by subtracting the area of the normal tissue in the hemisphere ipsilateral to the stroke from the area of the hemisphere contralateral to the stroke, by the method of Swanson et al., “A Semiautomated Method for Measuring Brain Infarct Volume”, J. Cereb. […] The total volume of infarction was calculated by summation of the damaged volume of the brain slices.
As for `O=C1NCCc2c(OCCCCN3CCCCC3)cccc21` [DPQ, 3,4-dihydro-5-[4-(1-piperidinyl)-butoxy]-1(2H)-isoquinolinone], the “damaged volume (infarct volume)” value stood at 106.7±23.2 mm^3.

Staying with this test, now noted: 10 mg/kg i.p. 2 h before and 2 h after MCA occlusion; 24 h; mean±SD; control 165.2±34.0.
On to `O=C1NCCc2c(OCCCCN3CCCCC3)cccc21` [DPQ, 3,4-dihydro-5-[4-(1-piperidinyl)-butoxy]-1(2H)-isoquinolinone], for which the “damaged volume (infarct volume)” value is given as 76.4±16.8 mm^3.

Staying with this test, now noted: 20 mg/kg i.p. 2 h before and 2 h after MCA occlusion; 24 h; mean±SD; control 165.2±34.0.
As for `O=C1NCCc2c(OCCCCN3CCCCC3)cccc21` [DPQ, 3,4-dihydro-5-[4-(1-piperidinyl)-butoxy]-1(2H)-isoquinolinone], the “damaged volume (infarct volume)” value was 110.2±42.0 mm^3.

Still in this test, the particulars now being: 40 mg/kg i.p. 2 h before and 2 h after MCA occlusion; 24 h; mean±SD; not significant vs control.
With `O=C1NCCc2c(OCCCCN3CCCCC3)cccc21` [DPQ, 3,4-dihydro-5-[4-(1-piperidinyl)-butoxy]-1(2H)-isoquinolinone], the “damaged volume (infarct volume)” value is listed as 135.6±44.8 mm^3.
